33 compounds from ChEMBL document CHEMBL3286170, “Design, synthesis and antimycobacterial activity evaluation of natural oridonin derivatives” (2014) can be followed below.

≈ marks a conversion by molar mass, not a printed value. A value given as a limit tells only on which side of the number the result lay.

Holding throughout (format): functional
Test [1] has as its system Mycolicibacterium phlei. Description: Antimycobacterial activity against Mycobacterium phlei ATCC 355 after 1 day by alamar blue assay. Conditions: ATCC 355, 24 h. (Resazurin is reduced to fluorescent resorufin, in cell work by metabolically active cells.)
Test [2] relates to Mycobacterium marinum. Description: Antimycobacterial activity against Mycobacterium marinum ATCC 927 after 7 days. Conditions: ATCC 927, 168 h.
Test [3] concerns Mycolicibacterium smegmatis. Kind of test: Antimycobacterial activity against Mycobacterium smegmatis ATCC 19420 after 1 day. To be noted: ATCC 19420, 24 h.

The MIC is the smallest concentration in the dilution series that meets the test's criterion for growth inhibition. High values mean a less susceptible organism, low ones a more susceptible organism. For `C=C1C(=O)[C@@]23C(=O)O[C@H]4CCC(C)(C)[C@H]5C(=O)OC[C@@]45[C@@H]2CC[C@@H]1[C@H]3OC(=O)c1ccc(F)cc1`, the MIC in test [1] was 2 µg/mL (≈ 4.15 µM); in test [2], 32 µg/mL (≈ 66.3 µM); in test [3] it was 16 µg/mL (≈ 33.2 µM).

On to `C=C1C(=O)[C@@]23C(=O)O[C@H]4CCC(C)(C)[C@H]5[C@H](O)OC[C@@]45[C@@H]2CC[C@@H]1[C@H]3OC(=O)/C=C/c1ccc(F)cc1`, for which the results for the MIC in test [1], in test [2] and in test [3] were 0.5 µg/mL (≈ 0.979 µM), 16 µg/mL (≈ 31.3 µM) and 16 µg/mL (≈ 31.3 µM), respectively.

Compound `C=C1C(=O)[C@]23[C@H](OC(=O)c4ccc(F)cc4)[C@H]1CC[C@H]2[C@@]12CO[C@]3(O)[C@@H](O)[C@@H]1C(C)(C)CC[C@@H]2O` registered an MIC in test [1] of 32 µg/mL (≈ 65.8 µM).

In test [1], `C=C1C(=O)[C@]23[C@H](OC(=O)c4cccnc4)[C@H]1CC[C@H]2[C@@]12CO[C@]3(O)[C@@H](O)[C@@H]1C(C)(C)CC[C@@H]2O` gave an MIC of 16 µg/mL (≈ 34.1 µM).

As for `C=C1C(=O)[C@]23[C@H](OC(=O)/C=C/c4ccccc4)[C@H]1CC[C@H]2[C@@]12CO[C@]3(O)[C@@H](O)[C@@H]1C(C)(C)CC[C@@H]2O`, the figures for the MIC in test [1], in test [2] and in test [3] were 1 µg/mL (≈ 2.02 µM), 8 µg/mL (≈ 16.2 µM) and 8 µg/mL (≈ 16.2 µM), respectively.

Consider `C=C1C(=O)[C@@]23C(=O)O[C@H]4CCC(C)(C)[C@H]5[C@H](O)OC[C@@]45[C@@H]2CC[C@@H]1[C@H]3OC(C)=O`, for which, in test [1], the MIC worked out at 32 µg/mL (≈ 79.1 µM).

The compound `C=C1C(=O)[C@]23[C@H](OC(=O)C4CCCCC4)[C@H]1CC[C@H]2[C@@]12CO[C@]3(O)[C@@H](O)[C@@H]1C(C)(C)CC[C@@H]2OC(C)=O` gave an MIC in test [1] of 8 µg/mL (≈ 15.5 µM).

Consider `C=C1C(=O)[C@@]23C(=O)O[C@H]4CCC(C)(C)[C@H]5[C@H](O)OC[C@@]45[C@@H]2CC[C@@H]1[C@H]3OC(=O)/C=C/c1ccc(OC)cc1`, for which the MIC was determined as 2 µg/mL (≈ 3.83 µM) in test [1], 32 µg/mL (≈ 61.2 µM) in test [2] and 16 µg/mL (≈ 30.6 µM) in test [3].

With `C=C1C(=O)[C@]23[C@H](O)[C@H]1CC[C@H]2[C@@]12CO[C@]3(O)[C@@H](O)[C@@H]1C(C)(C)CC[C@@H]2O` [ORIDONIN], the MIC in test [1] was 16 µg/mL (≈ 43.9 µM); in test [2], above 64 µg/mL; in test [3], above 64 µg/mL.

As for `C=C1C(=O)[C@]23[C@H](OC(=O)/C=C/c4ccc(OC)c(OC)c4)[C@H]1CC[C@H]2[C@@]12CO[C@]3(O)[C@@H](O)[C@@H]1C(C)(C)CC[C@@H]2O`, the MIC in test [1] was 1 µg/mL (≈ 1.8 µM); in test [2], 16 µg/mL (≈ 28.8 µM); in test [3], 8 µg/mL (≈ 14.4 µM).

Compound `C=C1C(=O)[C@]23[C@H](OC(=O)C4CCCCC4)[C@H]1CC[C@H]2[C@@]12CO[C@]3(O)[C@@H](O)[C@@H]1C(C)(C)CC[C@@H]2O` returned an MIC in test [1] of 8 µg/mL (≈ 16.9 µM).

`C=C1C(=O)[C@]23[C@H](OC(=O)Cc4c[nH]c5ccccc45)[C@H]1CC[C@H]2[C@@]12CO[C@]3(O)[C@@H](O)[C@@H]1C(C)(C)CC[C@@H]2O`: in test [1], the MIC stood at 32 µg/mL (≈ 61.3 µM).

Turning to `C=C1C(=O)[C@@]23C(=O)O[C@H]4CCC(C)(C)[C@H]5C(=O)OC[C@@]45[C@@H]2CC[C@@H]1[C@H]3OC(=O)/C=C/c1ccc(F)cc1`, the results for the MIC in test [1], in test [2] and in test [3] were 0.5 µg/mL (≈ 0.983 µM), 4 µg/mL (≈ 7.87 µM) and 4 µg/mL (≈ 7.87 µM), respectively.

Turning to `C=C1C(=O)[C@]23[C@H](OC(=O)/C=C/c4ccc(OC)cc4)[C@H]1CC[C@H]2[C@@]12CO[C@]3(O)[C@@H](O)[C@@H]1C(C)(C)CC[C@@H]2O`, the values for the MIC in test [1], in test [2] and in test [3] were 0.5 µg/mL (≈ 0.953 µM), 4 µg/mL (≈ 7.62 µM) and 4 µg/mL (≈ 7.62 µM), respectively.

For `C=C1C(=O)[C@@]23C(=O)O[C@H]4CCC(C)(C)[C@H]5C(=O)OC[C@@]45[C@@H]2CC[C@@H]1[C@H]3OC(=O)/C=C/c1ccccc1`, the MIC in test [1] was 0.5 µg/mL (≈ 1.02 µM); in test [2] it was 4 µg/mL (≈ 8.15 µM); in test [3], 4 µg/mL (≈ 8.15 µM).

As for `C=C1C(=O)[C@@]23C(=O)O[C@H]4CCC(C)(C)[C@H]5C(=O)OC[C@@]45[C@@H]2CC[C@@H]1[C@H]3OC(C)=O`, the MIC was 2 µg/mL (≈ 4.97 µM) in test [1], 64 µg/mL (≈ 159 µM) in test [2] and 64 µg/mL (≈ 159 µM) in test [3].

As to `C=C1C(=O)[C@]23[C@H](OC(=O)/C=C/c4ccc(F)cc4)[C@H]1CC[C@H]2[C@@]12CO[C@]3(O)[C@@H](O)[C@@H]1C(C)(C)CC[C@@H]2O`, the MIC in test [1] turned out to be 2 µg/mL (≈ 3.9 µM); in test [2], 8 µg/mL (≈ 15.6 µM); in test [3], 4 µg/mL (≈ 7.8 µM).

`C=C1C(=O)[C@@]23C(=O)O[C@H]4CCC(C)(C)[C@H]5[C@H](O)OC[C@@]45[C@@H]2CC[C@@H]1[C@H]3OC(=O)c1ccc(C(F)(F)F)cc1`: the results for the minimum inhibitory concentration (MIC) in test [1], in test [2] and in test [3] were 8 µg/mL (≈ 15 µM), 16 µg/mL (≈ 29.9 µM) and 16 µg/mL (≈ 29.9 µM), respectively.

Consider `C=C1C(=O)[C@]23[C@H](OC(=O)/C=C/c4ccc(F)cc4)[C@H]1CC[C@H]2[C@@]12CO[C@]3(O)[C@@H](O)[C@@H]1C(C)(C)CC[C@@H]2OC(C)=O`, for which the MIC in test [1] stood at 8 µg/mL (≈ 14.4 µM); in test [2], 64 µg/mL (≈ 115 µM); in test [3] it was 16 µg/mL (≈ 28.8 µM).

On to `C=C1C(=O)[C@@]23C(=O)O[C@H]4CCC(C)(C)[C@H]5[C@H](O)OC[C@@]45[C@@H]2CC[C@@H]1[C@H]3O`, for which, in test [1], the MIC is 32 µg/mL (≈ 88.3 µM).

As for `C=C1C(=O)[C@]23[C@H](OC(=O)CCCCCCC)[C@H]1CC[C@H]2[C@@]12CO[C@]3(O)[C@@H](O)[C@@H]1C(C)(C)CC[C@@H]2O`, the MIC in test [1] was 2 µg/mL (≈ 4.08 µM); in test [2], 16 µg/mL (≈ 32.6 µM); in test [3], 16 µg/mL (≈ 32.6 µM).

Consider `C=C1C(=O)[C@]23[C@H](OC(=O)c4ccc(C(F)(F)F)cc4)[C@H]1CC[C@H]2[C@@]12CO[C@]3(O)[C@@H](O)[C@@H]1C(C)(C)CCC2=O`, for which the MIC in test [1] is 16 µg/mL (≈ 29.9 µM).

In test [1], `C=C1C(=O)[C@]23[C@H](OC(=O)C4CCCCC4)[C@H]1CC[C@H]2[C@@]12CO[C@]3(O)[C@@H](O)[C@@H]1C(C)(C)CCC2=O` came in with an MIC of 16 µg/mL (≈ 33.9 µM).

In the case of `C=C1C(=O)[C@]23[C@H](OC(=O)c4ccc(C(F)(F)F)cc4)[C@H]1CC[C@H]2[C@@]12CO[C@]3(O)[C@@H](O)[C@@H]1C(C)(C)CC[C@@H]2O`, in test [1], the MIC worked out at 16 µg/mL (≈ 29.8 µM).

On to `C=C1C(=O)[C@@]23C(=O)O[C@H]4CCC(C)(C)[C@H]5[C@H](O)OC[C@@]45[C@@H]2CC[C@@H]1[C@H]3OC(=O)/C=C/c1ccccc1`, for which the MIC came out at 2 µg/mL (≈ 4.06 µM) in test [1], 32 µg/mL (≈ 65 µM) in test [2] and 16 µg/mL (≈ 32.5 µM) in test [3].

For `C=C1C(=O)[C@]23[C@H](OC(=O)c4cnccn4)[C@H]1CC[C@H]2[C@@]12CO[C@]3(O)[C@@H](O)[C@@H]1C(C)(C)CC[C@@H]2O`, the MIC in test [1] came out at 4 µg/mL (≈ 8.5 µM); in test [2] it was 32 µg/mL (≈ 68 µM); in test [3] it was 32 µg/mL (≈ 68 µM).

`CN[C@@H]1[C@H](O[C@H]2[C@H](O[C@H]3[C@H](O)[C@@H](O)[C@H](N=C(N)N)[C@@H](O)[C@@H]3N=C(N)N)O[C@@H](C)[C@]2(O)C=O)O[C@@H](CO)[C@H](O)[C@H]1O` [STREPTOMYCIN]: the values for the MIC in test [1], in test [2] and in test [3] were 0.5 µg/mL (≈ 0.86 µM), 0.5 µg/mL (≈ 0.86 µM) and 0.125 µg/mL (≈ 0.215 µM), respectively.

In turn, `C=C1C(=O)[C@]23[C@H](OC(=O)c4ccc(C(F)(F)F)cc4)[C@H]1CC[C@H]2[C@@]12CO[C@]3(O)[C@@H](O)[C@@H]1C(C)(C)CC[C@@H]2OC(C)=O` yielded an MIC in test [1] of 16 µg/mL (≈ 27.7 µM).

Take `C=C1C(=O)[C@]23[C@H](OC(=O)/C=C/c4ccc(F)cc4)[C@H]1CC[C@H]2[C@@]12CO[C@]3(O)[C@@H](O)[C@@H]1C(C)(C)CCC2=O`: the MIC in test [1] was 8 µg/mL (≈ 15.7 µM); in test [2] it was 64 µg/mL (≈ 125 µM); in test [3] it was 16 µg/mL (≈ 31.3 µM).

In the case of `C=C1C(=O)[C@]23[C@H](OC(=O)C45CC6CC(CC(C6)C4)C5)[C@H]1CC[C@H]2[C@@]12CO[C@]3(O)[C@@H](O)[C@@H]1C(C)(C)CC[C@@H]2O`, in test [1], the MIC amounted to 16 µg/mL (≈ 30.4 µM).

`C=C1C(=O)[C@@]23C(=O)O[C@H]4CCC(C)(C)[C@H]5C(=O)OC[C@@]45[C@@H]2CC[C@@H]1[C@H]3O`: 16 µg/mL (≈ 44.4 µM) was the least that counted as inhibitory in test [1] (MIC).

Consider `C=C1C(=O)[C@]23[C@H](O)[C@H]1CC[C@H]2[C@@]12CO[C@@]3(O)[C@@H](O)[C@@H]1C(C)(C)CC[C@@H]2OC(C)=O` [LASIOKAURIN], for which the values for the MIC in test [1], in test [2] and in test [3] were 1 µg/mL (≈ 2.46 µM), 32 µg/mL (≈ 78.7 µM) and 16 µg/mL (≈ 39.4 µM), respectively.

Compound `C=C1C(=O)[C@]23[C@H](O)[C@H]1CC[C@H]2[C@@]12CO[C@]3(O)[C@@H](O)[C@@H]1C(C)(C)CCC2=O` registered an MIC in test [1] of 8 µg/mL (≈ 22.1 µM).
